# Assay results from US6585964B1, “Method for preventing or minimizing biodegradation of a substance” (Biospherics Incorporated, priority 1999, dated 2003).
# Square brackets hold non-standard residues; d marks the D form. Peptide text beside a SMILES is read from it. * marks the point of attachment. Cbz = O=C(OCc1ccccc1)*
# What was measured:
# sense of smell = experiment: Human smell test of menthol enantiomers evaporated from acetone solution in Petri dishes; assay type: in vivo; conditions: 0.001M solution in acetone, twenty drops, acetone evaporated at room temperature; six human subjects, test performed twice each
# Procedure: The naturally-occurring optical isomer of menthol (1R,2S,5R)−(−) is used as a fragrance in a variety of products, such as perfumes, gums, and cigarettes. Both the natural and the unnatural (1S,2R,5S)−(+) optical isomer of menthol were obtained in 99% purity. A 0.001M solution of each enantiomer was prepared in reagent grade acetone. The solutions were allowed to equilibrate at room temperature for approximately one hour. Twenty drops of each solution were pipetted into separate glass Petri dishes. All glassware was clean. The acetone was then allowed to evaporate at room temperature. A human subject then smelled the two Petri dishes separately and recorded any sensations. The subject had been instructed to determine the presence of odor in the Petri dishes, and, if odor emanated from each, to determine whether the odors were the same or different. The test was performed twice on each of six human subjects, three female and three male. Each subject was given freshly prepared Petri dish servings to smell, and each immediately recorded his or hers impressions without communicating with the other subjects.
# carboxypeptidase = conditions: compared with the L-enantiomorph, which is hydrolysed; cited from earlier work
SMILES,odor the same as or different from the natural form (sense of smell),presence of odor (sense of smell),action of carboxypeptidase (hydrolysis) on the compound (carboxypeptidase)
"CC1CC[C@H](C(C)C)[C@@H](O)C1 (stereo partly drawn) [unnatural form of menthol, (1S,2R,5S)-(+)-Menthol]",the same as that of the natural form,had odor,–
O=C(CNC(=O)OCc1ccccc1)N[C@H](Cc1ccccc1)C(=O)O [carbobenzoxyglycyl-D-phenalalanine] (Cbz-Gly-[dF]-OH),–,–,no measurable action
